# Biological target: T1, hNLRP3 (Homo sapiens, UniProt Q96P20)
# T1 construct: THP-1 cells were purchased from the American Type Culture Collection; host or cells: THP-1 cells, PMA-differentiated
# Assay: IL-1β production in PMA-differentiated THP-1 cells stimulated with gramicidin
# Format: cell-based
# Conditions: gramicidin 5 μM, IL-1β in supernatant, Table 2
# Summary of the method: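 THP-1 cells differentiated with PMA (10 μg/ml, 24 h, or 20 ng/ml, 16-18 h), replated in 2% FBS RPMI and preincubated with compound for 1 h before 5 μM gramicidin for 2 h. Supernatant IL-1β measured by ELISA (1% DMSO) or HTRF (0.38% DMSO).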
# T1 sequence (Q96P20 whole entry): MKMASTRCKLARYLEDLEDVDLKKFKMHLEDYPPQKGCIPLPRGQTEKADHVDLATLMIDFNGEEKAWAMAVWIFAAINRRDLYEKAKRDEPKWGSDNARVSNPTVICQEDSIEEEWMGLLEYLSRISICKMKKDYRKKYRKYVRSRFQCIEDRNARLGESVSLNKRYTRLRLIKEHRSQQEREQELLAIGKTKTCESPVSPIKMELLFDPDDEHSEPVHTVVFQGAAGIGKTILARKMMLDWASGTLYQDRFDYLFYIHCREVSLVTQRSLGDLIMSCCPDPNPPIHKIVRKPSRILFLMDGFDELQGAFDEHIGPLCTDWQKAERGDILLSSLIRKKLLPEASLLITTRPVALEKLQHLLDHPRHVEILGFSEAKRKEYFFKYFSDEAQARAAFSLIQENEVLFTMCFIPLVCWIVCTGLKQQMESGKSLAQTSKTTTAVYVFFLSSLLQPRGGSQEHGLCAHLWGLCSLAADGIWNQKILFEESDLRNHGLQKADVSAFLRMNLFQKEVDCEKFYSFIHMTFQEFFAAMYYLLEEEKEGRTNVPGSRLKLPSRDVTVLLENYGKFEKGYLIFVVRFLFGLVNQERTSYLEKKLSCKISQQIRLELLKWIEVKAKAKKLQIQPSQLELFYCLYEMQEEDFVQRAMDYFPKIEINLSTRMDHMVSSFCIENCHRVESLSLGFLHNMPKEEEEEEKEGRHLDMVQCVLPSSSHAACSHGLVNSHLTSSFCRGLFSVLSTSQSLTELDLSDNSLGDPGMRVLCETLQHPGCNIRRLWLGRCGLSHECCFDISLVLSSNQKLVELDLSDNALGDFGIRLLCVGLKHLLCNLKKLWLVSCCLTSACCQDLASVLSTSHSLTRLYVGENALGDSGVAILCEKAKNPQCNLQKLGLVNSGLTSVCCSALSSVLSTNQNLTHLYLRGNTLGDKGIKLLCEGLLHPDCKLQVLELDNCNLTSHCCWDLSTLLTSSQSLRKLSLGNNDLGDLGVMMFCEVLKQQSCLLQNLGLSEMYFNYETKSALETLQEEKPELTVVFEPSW
row,Structure (SMILES),IC50
1,CC(C)c1cc(F)cc(C(C)C)c1NC(=O)NS(=O)(=O)c1ccc(C(C)(C)O)s1 [Compound 257],< 1 µM
2,CC(C)c1cccc(C(C)C)c1NC(=O)NS(=O)(=O)c1ncc(C(C)(C)O)s1 [Compound 261],1 to 5 µM
3,"CC(C)c1ccc(C#N)c(C(C)C)c1NC(=O)NS(=O)(=O)c1cc(C(C)(C)O)cs1 [Compound 262, N-(3-cyano-2,6-diisopropylphenylcarbamoyl)-4-(2-hydroxypropan-2-yl) thiophene-2-sulfonamide]",1 to 5 µM
4,"CC(C)c1ccc(C#N)c(C(C)C)c1NC(=O)NS(=O)(=O)c1ncc(C(C)(C)O)s1 [Compound 263, N-(3-cyano-2,6-diisopropylphenylcarbamoyl)-5-(2-hydroxypropan-2-yl) thiazole-2-sulfonamide]",1 to 5 µM
5,"Cc1sc(S(=O)(=O)NC(=O)Nc2c(C(C)C)ccc(C#N)c2C(C)C)cc1C(C)(C)O [Compound 264, N-(3-cyano-2,6-diisopropylphenylcarbamoyl)-4-(2-hydroxypropan-2-yl)-5-methylthiophene-2-sulfonamide]",5 to 15 µM
6,"CC(C)c1ccc(C#N)c(C(C)C)c1NC(=O)NS(=O)(=O)c1cc(C(C)(C)O)c(Cl)s1 [Compound 265, 5-chloro-N-(3-cyano-2,6-diisopropylphenylcarbamoyl)-4-(2-hydroxypropan-2-yl) thiophene-2-sulfonamide]",5 to 15 µM
7,CC(C)(O)c1ncsc1S(=O)(=O)NC(=O)Nc1c2c(cc3c1CCC3)CCC2 [Compound 266],1 to 5 µM
8,CC(C)c1cc(C#N)cc(C(C)C)c1NC(=O)NS(=O)(=O)c1cnc(C(C)(C)O)s1 [Compound 267],1 to 5 µM
9,CC(C)(O)c1ncsc1S(=O)(=O)NC(=O)Nc1c2c(c(F)c3c1CCC3)CCC2 [Compound 268],1 to 5 µM

# More lines, now with the values ahead:
row,IC50,Structure (SMILES)
1,1 to 5 µM,CC(C)c1cc(F)cc(C(C)C)c1NC(=O)NS(=O)(=O)c1cnc(C(C)(C)O)s1 [Compound 269]
2,1 to 5 µM,CC(C)c1cccc(C(C)C)c1NC(=O)NS(=O)(=O)c1cnc(C(C)(C)O)s1 [Compound 270]
3,1 to 5 µM,CC(C)c1ccc(Cl)c(C(C)C)c1NC(=O)NS(=O)(=O)c1cnc(C(C)(C)O)s1 [Compound 271]
4,1 to 5 µM,Cc1cc(C(C)C)c(NC(=O)NS(=O)(=O)c2cnc(C(C)(C)O)s2)c(C(C)C)c1 [Compound 272]
5,5 to 15 µM,CC(C)(O)c1ncsc1S(=O)(=O)NC(=O)Nc1c2c(c(Cl)c3c1CCC3)CCC2 [Compound 273]
6,5 to 15 µM,CC(C)c1ccc(F)c(C(C)C)c1NC(=O)NS(=O)(=O)c1cnc(C(C)(C)O)s1 [Compound 274]

# — patent US11339136B2 (Novartis AG, priority 2016, dated 2022)
